From ChEMBL document CHEMBL4765227, “Hit to lead optimization of a series of N-[4-(1,3-benzothiazol-2-yl)phenyl]acetamides as monoacylglycerol lipase inhibitors with potential anticancer activity” (Eur J Med Chem, 2016) come the findings set out here.

Molecules are shown by their SMILES. A value given as a limit tells only on which side of the number the result lay.

Holding throughout (type): functional
Test [1] has as its system UO-31. Kind of test: Growth inhibition of human UO-31 cells incubated for 48 hrs by sulforhodamine B assay.
For test [2], the system named is MDA-MB-468. Kind of test: Growth inhibition of human MDA-MB-468 cells incubated for 48 hrs by sulforhodamine B assay. Particulars: for CC50: read-out: LC50 (the source's name).
Test [3] deals with CCRF-CEM. Kind of test: Growth inhibition of human CCRF-CEM cells incubated for 48 hrs by sulforhodamine B assay.
Test [4] deals with EKVX. Kind of test: Growth inhibition of human EKVX cells incubated for 48 hrs by sulforhodamine B assay. In general terms: Sulforhodamine B stains cellular protein and so reports cell mass.
Test [5] relates to SNB-75. Kind of test: Growth inhibition of human SNB-75 cells incubated for 48 hrs by sulforhodamine B assay.
Test [6] relates to NCI-H226. Kind of test: Growth inhibition of human NCI-H226 cells incubated for 48 hrs by sulforhodamine B assay.

Take `O=C(CNc1c(Cl)cccc1Cl)Nc1ccc(-c2nc3ccccc3s2)cc1`: the GI50 (usually the concentration that inhibits growth by half) in test [1] was 1.5 µM; in test [2], 0.0251 µM; in test [3] it was 0.657 µM; in test [4] it was 8.29 µM; in test [5], 2.97 µM; in test [6], 2.02 µM. Also, the LC50 (concentration killing 50% of cells) was determined as 8.5 µM in test [1] and 39.2 µM in test [5]. For the same compound, the TGI – broadly, the concentration giving total growth inhibition – in test [1] was determined as 3.57 µM; in test [2], 0.137 µM; in test [3], 2.97 µM; in test [4], 22.6 µM; in test [5] it was 15.4 µM; in test [6] it was 5.32 µM. For the same compound, the CC50 in test [2] was determined as 4.33 µM; in test [3] (read-out: LC50 (the source's name)), 45.9 µM. For the same compound, the results for the LC50 in test [4] and in test [6] were 55.2 µM and over 100 µM, respectively.

Regarding `O=C(CNc1ccc(Cl)cc1)Nc1ccc(-c2nc3ccccc3s2)cc1`, in test [1], it took 1.96 µM to inhibit growth by half (GI50), the LC50 (concentration killing 50% of cells) worked out at 40.3 µM and net growth stopped (TGI) at 9.79 µM. Also, in test [2], the GI50 came out at 0.0238 µM, the TGI was 0.353 µM and the CC50 was determined as 6.19 µM. Besides, in test [4], the GI50 stood at 4.36 µM; the LC50 – broadly, the concentration that kills 50% of the test population – is 66.9 µM; total growth inhibition (TGI) required 19.1 µM. In test [5], this compound gave a GI50 of 2.65 µM, an LC50 (concentration killing 50% of cells) of 37.6 µM and a TGI of 14.1 µM. Moreover, in test [6], the GI50 is 2.25 µM, the LC50 was over 100 µM and total growth inhibition (TGI) required 7.1 µM.
